Experiment [1] deals with T1, Cholecystokinin receptor type A (Homo sapiens, UniProt P32238).
T1 sequence (P32238 whole entry): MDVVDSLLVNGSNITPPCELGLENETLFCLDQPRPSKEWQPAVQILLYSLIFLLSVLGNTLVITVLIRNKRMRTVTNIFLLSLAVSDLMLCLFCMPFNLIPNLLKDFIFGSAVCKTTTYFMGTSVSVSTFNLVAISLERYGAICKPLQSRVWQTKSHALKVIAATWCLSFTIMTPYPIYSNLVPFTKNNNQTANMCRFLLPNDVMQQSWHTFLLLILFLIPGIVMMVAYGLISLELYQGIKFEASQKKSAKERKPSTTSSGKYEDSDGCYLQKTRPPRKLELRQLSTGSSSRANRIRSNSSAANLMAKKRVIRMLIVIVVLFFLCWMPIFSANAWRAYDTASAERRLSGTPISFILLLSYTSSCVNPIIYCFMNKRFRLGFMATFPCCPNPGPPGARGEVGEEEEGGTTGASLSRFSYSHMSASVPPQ
Put plainly: Displacement of [3H]L-364718 from human recombinant CCK1 receptor expressed in PC3 cells. The experiment is classed as cell-based, PC-3.

Experiment [2] deals with T2, Gastrin/cholecystokinin type B receptor (Homo sapiens, UniProt P32239).
T2 sequence (P32239 whole entry): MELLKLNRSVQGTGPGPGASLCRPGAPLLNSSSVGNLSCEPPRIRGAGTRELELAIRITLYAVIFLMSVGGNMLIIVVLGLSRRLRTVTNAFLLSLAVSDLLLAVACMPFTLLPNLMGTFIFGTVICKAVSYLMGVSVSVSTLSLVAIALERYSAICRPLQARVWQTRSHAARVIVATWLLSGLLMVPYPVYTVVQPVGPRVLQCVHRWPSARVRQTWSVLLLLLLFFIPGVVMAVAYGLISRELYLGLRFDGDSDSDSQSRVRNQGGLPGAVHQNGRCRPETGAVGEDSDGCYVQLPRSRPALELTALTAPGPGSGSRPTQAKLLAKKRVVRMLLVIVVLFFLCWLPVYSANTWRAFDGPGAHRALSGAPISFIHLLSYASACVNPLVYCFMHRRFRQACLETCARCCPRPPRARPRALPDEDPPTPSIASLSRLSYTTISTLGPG
Nature of the experiment: Displacement of [125I]BH-CCK-8S from human recombinant CCK2 receptor expressed in NIH3T3 cells.

In experiment [3] the target is T1, Cholecystokinin receptor type A. Put plainly: Displacement of [3H]L-364718 from human recombinant CCK1 receptor expressed in CHOK1 cells. The experiment is classed as cell-based, CHO-K1.

Consider `CC(C)(C)C(=O)CN1C(=O)N(CC(=O)Nc2cccc(C(=O)O)c2)N=C(C2CCCCC2)c2ccccc21`, for which the Ki in experiment [1] was over 10000 nM.
`O=C(CN1N=C(C2CCCCC2)c2ccccc2N(CC(=O)C23CC4CC(CC(C4)C2)C3)C1=O)Nc1cccc(C(=O)O)c1`: the figures for the Ki in experiment [2] and in experiment [1] were 5.62 nM and 1910 nM, respectively.
In the case of `O=C(CN1N=C(C2CCCCC2)c2ccccc2N(CC(=O)C2CCCCC2)C1=O)Nc1cccc(C(=O)O)c1`, the Ki is 0.794 nM in experiment [2] and 7940 nM in experiment [3].
Regarding `CC(C)(C)C(=O)CN1C(=O)N(CC(=O)Nc2cccc(C(=O)O)c2)N=C(C23CC4CC(CC(C4)C2)C3)c2ccccc21`, the figures for the Ki in experiment [2] and in experiment [1] were 24 nM and 372 nM, respectively.
With `CC(C)(C)C(=O)CN1C(=O)N(CC(=O)Nc2cccc(-c3ccc(C(=O)O)o3)c2)N=C(C2CCCCC2)c2ccccc21`, the inhibitory constant (Ki) in experiment [2] was 0.245 nM; in experiment [3], 457 nM.
For `CC(C)(C)C(=O)CN1C(=O)N(CC(=O)Nc2cccc(-c3cccn3CC(=O)O)c2)N=C(C2CCCCC2)c2ccccc21`, in experiment [2], the Ki was 0.912 nM.
In the case of `CC(C)(C)C(=O)CN1C(=O)N(CC(=O)Nc2ccc3c(cnn3CC(=O)O)c2)N=C(C2CCCCC2)c2ccccc21`, the Ki is 9.33 nM in experiment [2] and 8130 nM in experiment [3].
Turning to `CC(C)(C)C(=O)CN1C(=O)N(CC(=O)Nc2cccc(CCC(=O)O)c2)N=C(C2CCCCC2)c2ccccc21`, the Ki in experiment [2] was 1.86 nM; in experiment [3] it was over 10000 nM.
For `CC(C)(C)C(=O)CN1C(=O)N(CC(=O)Nc2cccc(-c3cccc(C(=O)O)c3)c2)N=C(C2CCCCC2)c2ccccc21` the same measures were 1.58 nM and 550 nM.
For `CC(C)(C)C(=O)CN1C(=O)N(CC(=O)Nc2cccc3c2cnn3CC(=O)O)N=C(C2CCCCC2)c2ccccc21` the same measures were 2.75 nM and 6920 nM.
Turning to `CC(C)(C)C(=O)CN1C(=O)N(CC(=O)Nc2cccc(C(=O)NS(C)(=O)=O)c2)N=C(C2CCCCC2)c2ccccc21`, the Ki in experiment [2] was 3.89 nM; in experiment [1] it was 2950 nM.
In the case of `CC(C)(C)C(=O)CN1C(=O)N(CC(=O)Nc2cccc(-c3nc(C(=O)O)co3)c2)N=C(C2CCCCC2)c2ccccc21`, the Ki was 0.363 nM in experiment [2] and 661 nM in experiment [3].
For `CC(C)(C)C(=O)CN1C(=O)N(CC(=O)Nc2ccc3c(ccn3CC(=O)O)c2)N=C(C2CCCCC2)c2ccccc21` the same measures were 0.776 nM and 2510 nM.
For the compound `CN(CC(=O)O)c1cccc(NC(=O)CN2N=C(C3CCCCC3)c3ccccc3N(CC(=O)C(C)(C)C)C2=O)c1`, the Ki in experiment [2] is 1.07 nM; in experiment [3], 6460 nM.
On the same counts, the results for `CC(C)(C)C(=O)CN1C(=O)N(CC(=O)Nc2cccc(-c3cn(CC(=O)O)cn3)c2)N=C(C2CCCCC2)c2ccccc21` are 4.07 nM and 1700 nM.
For `CC(C)(C)C(=O)CN1C(=O)N(CC(=O)Nc2cccc3c2ccn3CC(=O)O)N=C(C2CCCCC2)c2ccccc21` the same measures were 6.03 nM and over 10000 nM.
Take `CCOCCN1C(=O)N(CC(=O)Nc2cccc(C(=O)O)c2)N=C(C2CCCCC2)c2ccccc21`: in experiment [2], the Ki was 490 nM.
On to `CC(C)(C)C(=O)CN1C(=O)N(CC(=O)Nc2cccc(SCc3nn[nH]n3)c2)N=C(C2CCCCC2)c2ccccc21`, for which the Ki in experiment [2] is 0.708 nM; in experiment [3], 389 nM.
For `CC(C)(C)C(=O)CN1C(=O)N(CC(=O)Nc2ccc3ncn(CC(=O)O)c3c2)N=C(C2CCCCC2)c2ccccc21` the same measures were 17 nM and over 10000 nM.
Consider `CC(C)(C)C(=O)CN1C(=O)N(CC(=O)Nc2cccc(Cc3nnn[nH]3)c2)N=C(C2CCCCC2)c2ccccc21`, for which the Ki in experiment [2] is 4.68 nM; in experiment [3], over 10000 nM.
In the case of `CC(C)(C)C(=O)CN1C(=O)N(CC(=O)Nc2ccc3cnn(CC(=O)O)c3c2)N=C(C2CCCCC2)c2ccccc21`, the Ki in experiment [2] is 0.832 nM; in experiment [3], 2140 nM.
As to `CC(C)(C)C(=O)CN1C(=O)N(CC(=O)Nc2cccc(-c3csc(C(=O)O)n3)c2)N=C(C2CCCCC2)c2ccccc21`, the Ki in experiment [2] is 0.661 nM; in experiment [3], over 10000 nM.

These data come from ChEMBL document CHEMBL1145380, “Optimization of 1,3,4-benzotriazepine-based CCK(2) antagonists to obtain potent, orally active inhibitors of gastrin-mediated gastric acid secretion” (J Med Chem, 2007).
